Experimental data: US20140248291A1, “Modulation of Cellular Migration” (THE UAB RESEARCH FOUNDATION, priority 2011, published 2014)

Tests used:
[1] = biological target: T1, rat B2R (Rattus norvegicus, UniProt P25023); conditions: n=3, read-out: IC50, BK-induced [3H]-IP3 formation; cited from earlier work
T1 sequence (P25023 1-396): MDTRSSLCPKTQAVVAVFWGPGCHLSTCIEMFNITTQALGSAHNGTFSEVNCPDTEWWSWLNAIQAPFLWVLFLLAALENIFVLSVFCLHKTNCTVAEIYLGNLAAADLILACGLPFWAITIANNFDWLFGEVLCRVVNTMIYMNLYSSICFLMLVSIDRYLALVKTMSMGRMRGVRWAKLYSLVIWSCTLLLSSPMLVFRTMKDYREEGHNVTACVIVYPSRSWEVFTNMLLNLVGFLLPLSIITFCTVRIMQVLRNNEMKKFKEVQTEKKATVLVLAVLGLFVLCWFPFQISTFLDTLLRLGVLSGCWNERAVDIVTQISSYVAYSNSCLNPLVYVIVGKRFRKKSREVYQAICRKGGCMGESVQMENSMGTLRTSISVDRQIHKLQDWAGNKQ

[2] = biological target: T2, rat B1 BK receptor (Rattus norvegicus, UniProt P97583); conditions: cited from earlier work
T2 sequence (P97583 1-337): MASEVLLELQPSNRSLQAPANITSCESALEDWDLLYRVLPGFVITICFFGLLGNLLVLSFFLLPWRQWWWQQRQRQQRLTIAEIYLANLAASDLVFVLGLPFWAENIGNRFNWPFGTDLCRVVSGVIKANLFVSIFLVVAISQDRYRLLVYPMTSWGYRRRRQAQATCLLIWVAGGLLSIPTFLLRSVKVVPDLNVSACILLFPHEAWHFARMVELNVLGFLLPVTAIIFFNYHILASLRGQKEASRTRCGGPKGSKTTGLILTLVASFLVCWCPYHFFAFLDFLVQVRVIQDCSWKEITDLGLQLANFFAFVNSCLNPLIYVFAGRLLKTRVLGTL

[3] = system: D54-EGFP tumor cells; assay: tumor invasion/growth in organotypic mouse brain slice cultures; type: cell-based, human
Procedure: Slice cultures were prepared from brains of P13-P16 BALB/c scid mice (Jackson Laboratory). Coronal brain sections 300 μm thick were sliced with a Vibrotome 3000 sectioning system in ice cold artificial saline. Brain slices were transferred into filter inserts with a polycarbonate membrane (Falcon, BD, pore size 0.45 μm). Filters were placed into 6-well plates containing 1 ml of DMEM supplemented with 8% FCS, 0.2 mM glutamine, 100 U/mL penicillin, and […] streptomycin. After overnight repose the medium was changed to cultivation medium containing 25% heat-inactivated horse serum, 50 mM sodium bicarbonate, 2% glutamine, 25% Hank's balanced salt solution, […] insulin (all from Gibco), 2.46 mg/mL glucose (Sigma Aldrich), 0.8 mg/mL vitamin C (Sigma Aldrich), 100 U/mL penicillin, […] streptomycin (Sigma Aldrich), and 5 mM Tris in DMEM (Gibco). At day 3 of culturing approximately 3000 D54-EGFP tumor cells in a volume of 1 μl were implanted per organotypic brain slice. Cells were injected using a 1 μl hemilton syringe mounted to a micromanipulator. The cell suspension was slowly injected over 30 seconds and subsequently the syringe was slowly pulled out. Gliomas were always inoculated into the right cortex. […] The tumor area was determined using ImageJ software (available from rsbweb.nih.gov). Tumor growth was calculated between day 4 and day 11 of culturing.

[4] = biological target: BK (Homo sapiens, UniProt P30411); conditions: cited from earlier work
Chain of BK (P30411 whole entry, species assumed): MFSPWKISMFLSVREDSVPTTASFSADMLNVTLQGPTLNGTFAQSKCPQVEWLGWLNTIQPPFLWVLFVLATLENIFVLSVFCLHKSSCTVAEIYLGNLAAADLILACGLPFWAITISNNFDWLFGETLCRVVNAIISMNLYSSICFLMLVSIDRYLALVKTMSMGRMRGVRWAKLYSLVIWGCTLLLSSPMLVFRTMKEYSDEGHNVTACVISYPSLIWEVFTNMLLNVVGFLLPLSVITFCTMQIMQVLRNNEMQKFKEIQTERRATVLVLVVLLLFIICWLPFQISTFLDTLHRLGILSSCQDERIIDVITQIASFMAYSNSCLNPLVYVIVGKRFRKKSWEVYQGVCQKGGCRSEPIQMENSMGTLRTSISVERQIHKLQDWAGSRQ

Structure (SMILES) | IC50 [1] [µM] | interaction with rat B1 BK receptor [2] | tumor growth day 4 to day 11 ([3]; BK and HOE-140 compared to control slices or HOE-140 alone) | migration (spread) of GFP-expressing tumor cells ([3]; HOE-140 (5 μM) and BK (1 μM) compared to BK alone) | potency relative to D-Arg-[Hyp^2, Thi^5,8, D-Phe^7]BK [4]
CN(C)CCN(C)CCNC(=O)[C@@H]1CCCN1S(=O)(=O)c1ccc(NNC(=S)NC(c2ccccc2)c2ccccc2)c([N+](=O)[O-])c1 [Bradyzide] | 0.0116 ± 0.0014 | does not interact | – | – | –
N=C(N)NCCCC(NC(=O)[C@H](N)CCCNC(=N)N)C(=O)N1CCC[C@H]1C(=O)N1C[C@H](O)C[C@H]1C(=O)NCC(=O)N[C@@H](Cc1cccs1)C(=O)N[C@@H](CO)C(=O)N1Cc2ccccc2C[C@@H]1C(=O)N1C2CCCCC2C[C@H]1C(=O)N[C@H](CCCNC(=N)N)C(=O)O (stereo partly drawn) [HOE-140, D-Arg-[Hyp^3, Thi^5, D-Tic^7, Oic^8]bradykinin] | – | – | did not differ significantly | significantly reduced migration | two to three orders of magnitude more potency
